These results are taken from ChEMBL document CHEMBL5154747, “Discovery of new carbonic anhydrase IX inhibitors as anticancer agents by toning the hydrophobic and hydrophilic rims of the active site to encounter the dual-tail approach” (Eur J Med Chem, 2022).

The structures appear in SMILES notation.

Common to all, as to assay type: functional
Holding throughout (conditions): read-out: GI

One assay has as its system Malme-3M. Briefly: Anticancer activity against human Malme-3M cells assessed as cell growth inhibition at 10 uM incubated for 48 hrs by SRB assay relative to control.
Another assay relates to SNB-19. Kind of assay: Anticancer activity against human SNB-19 cells assessed as cell growth inhibition at 10 uM incubated for 48 hrs by SRB assay relative to control.
In the next assay the test system is SK-OV-3. Kind of assay: Anticancer activity against human SK-OV-3 cells assessed as cell growth inhibition at 10 uM incubated for 48 hrs by SRB assay relative to control.
In the next assay the test system is OVCAR-8. Briefly: Anticancer activity against human OVCAR-8 cells assessed as cell growth inhibition at 10 uM incubated for 48 hrs by SRB assay relative to control.
The subject of the next assay is IGROV-1. Kind of assay: Anticancer activity against human IGROV-1 cells assessed as cell growth inhibition at 10 uM incubated for 48 hrs by SRB assay relative to control.
For another assay, the system named is RXF 393. Kind of assay: Anticancer activity against human RXF 393 cells assessed as cell growth inhibition at 10 uM incubated for 48 hrs by SRB assay relative to control.
A further assay concerns NCI-H322M. Briefly: Anticancer activity against human NCI-H322M cells assessed as cell growth inhibition at 10 uM incubated for 48 hrs by SRB assay relative to control.
For another assay, the system named is COLO 205. Kind of assay: Anticancer activity against human COLO 205 cells assessed as cell growth inhibition at 10 uM incubated for 48 hrs by SRB assay relative to control.
Another assay relates to 786-0. Kind of assay: Anticancer activity against human 786-0 cells assessed as cell growth inhibition at 10 uM incubated for 48 hrs by SRB assay relative to control.
The subject of another assay is SF-295. Kind of assay: Anticancer activity against human SF-295 cells assessed as cell growth inhibition at 10 uM incubated for 48 hrs by SRB assay relative to control.
The test system of another assay is EKVX. Kind of assay: Anticancer activity against human EKVX cells assessed as cell growth inhibition at 10 uM incubated for 48 hrs by SRB assay relative to control.
In another assay the test system is DU-145. Kind of assay: Anticancer activity against human DU-145 cells assessed as cell growth inhibition at 10 uM incubated for 48 hrs by SRB assay relative to control.
The test system of the next assay is NCI-H522. Briefly: Anticancer activity against human NCI-H522 cells assessed as cell growth inhibition at 10 uM incubated for 48 hrs by SRB assay relative to control.
The next assay has as its system HT-29. Briefly: Anticancer activity against human HT-29 cells assessed as cell growth inhibition at 10 uM incubated for 48 hrs by SRB assay relative to control.
Another assay deals with SN12C. Kind of assay: Anticancer activity against human SN12C cells assessed as cell growth inhibition at 10 uM incubated for 48 hrs by SRB assay relative to control.
A further assay deals with UO-31. Briefly: Anticancer activity against human UO-31 cells assessed as cell growth inhibition at 10 uM incubated for 48 hrs by SRB assay relative to control.
The next assay concerns Hs-578T. Kind of assay: Anticancer activity against human Hs-578T cells assessed as cell growth inhibition at 10 uM incubated for 48 hrs by SRB assay relative to control.
The next assay relates to LOX IMVI. Briefly: Anticancer activity against human LOX IMVI cells assessed as cell growth inhibition at 10 uM incubated for 48 hrs by SRB assay relative to control.
The subject of a further assay is SK-MEL-28. Briefly: Anticancer activity against human SK-MEL-28 cells assessed as cell growth inhibition at 10 uM incubated for 48 hrs by SRB assay relative to control.
A further assay has as its system TK-10. Kind of assay: Anticancer activity against human TK-10 cells assessed as cell growth inhibition at 10 uM incubated for 48 hrs by SRB assay relative to control.

As to `NS(=O)(=O)c1ccc(Nc2nc(N/N=C/c3ccc(Cl)cc3)nc(Nc3ccccc3)n2)cc1`, the inhibition of growth at 10 µM in the assay with Malme-3M was 11%; with SNB-19, 18%; with SK-OV-3, below 10%; in the assay on OVCAR-8, 32%; with IGROV-1 it was 33%; with RXF 393, 111%. For the same compound, the inhibition of growth at 10 µM with NCI-H322M is below 10%; in the assay on COLO 205, 26%; in the assay with 786-0 it was 59%; in the assay with SF-295, 41%; with EKVX, 23%; in the assay on DU-145 it was 27%. For the same compound, the inhibition of growth at 10 µM was 20% in the assay on NCI-H522; 65% in the assay with HT-29; 18% in the assay on SN12C; 17% in the assay on UO-31; 35% in the assay on Hs-578T; 39% with LOX IMVI. Also, the results for the inhibition of growth at 10 µM in the assay on SK-MEL-28 and with TK-10 were 24% and below 10%, respectively.

Take `NS(=O)(=O)c1ccc(Nc2nc(N/N=C/c3ccc([N+](=O)[O-])cc3)nc(Nc3ccccc3)n2)cc1`: the inhibition of growth at 10 µM with Malme-3M came to 63%; with SNB-19 it was 79%; in the assay on SK-OV-3, 32%; with OVCAR-8, 66%; with IGROV-1 it was 47%; in the assay with RXF 393, 105%. Moreover, the inhibition of growth at 10 µM in the assay on NCI-H322M was 60%; with COLO 205, 76%; with 786-0, 91%; with SF-295, 42%; with EKVX, 16%; in the assay on DU-145, 56%. In addition, the inhibition of growth at 10 µM in the assay with NCI-H522 is 51%; with HT-29, 75%; in the assay with SN12C, 72%; in the assay on UO-31, 18%; with Hs-578T it was 46%; in the assay on LOX IMVI it was 120%. For the same compound, the inhibition of growth at 10 µM in the assay with SK-MEL-28 was 64%; in the assay on TK-10 it was below 10%.

On to `NS(=O)(=O)c1ccc(Nc2nc(N/N=C/c3c[nH]c4ccccc34)nc(Nc3ccccc3)n2)cc1`, for which the inhibition of growth at 10 µM in the assay on Malme-3M is 53%; in the assay on SNB-19, 43%; with SK-OV-3 it was below 10%; with OVCAR-8, 62%; in the assay on IGROV-1, 66%; in the assay with RXF 393, 125%. The inhibition of growth at 10 µM came out at 45% in the assay with NCI-H322M; 59% with COLO 205; 58% with 786-0; 68% in the assay on SF-295; 32% in the assay with EKVX; 56% with DU-145. Also, the inhibition of growth at 10 µM in the assay on NCI-H522 turned out to be 68%; in the assay on HT-29, 68%; in the assay on SN12C it was 59%; in the assay on UO-31 it was 50%; in the assay with Hs-578T it was 57%; in the assay on LOX IMVI it was 110%. Besides, the inhibition of growth at 10 µM in the assay on SK-MEL-28 was determined as 54%; with TK-10, 20%.

As for `CCCCc1nc(/C=N/Nc2nc(Nc3ccccc3)nc(Nc3ccc(S(N)(=O)=O)cc3)n2)c(Cl)[nH]1`, the inhibition of growth at 10 µM is below 10% with Malme-3M; 69% in the assay on SNB-19; below 10% in the assay on SK-OV-3; below 10% with OVCAR-8; below 10% in the assay on IGROV-1; below 10% in the assay with RXF 393. Also, the inhibition of growth at 10 µM is below 10% with NCI-H322M; 27% in the assay with COLO 205; below 10% in the assay on 786-0; below 10% with SF-295; below 10% with EKVX; 15% with DU-145. Besides, the inhibition of growth at 10 µM in the assay on NCI-H522 is 58%; with HT-29 it was below 10%; in the assay on SN12C, below 10%; in the assay with UO-31 it was 14%; in the assay on Hs-578T it was 22%; in the assay with LOX IMVI it was 58%. Further, the figures for the inhibition of growth at 10 µM in the assay with SK-MEL-28 and in the assay with TK-10 were 28% and below 10%, respectively.

`NS(=O)(=O)c1ccc(Nc2nc(N/N=C/c3ccc4c(c3)OCO4)nc(Nc3ccccc3)n2)cc1`: the inhibition of growth at 10 µM in the assay with Malme-3M was 41%; in the assay on SNB-19 it was 44%; in the assay with SK-OV-3, 34%; with OVCAR-8 it was 50%; with IGROV-1, 63%; in the assay with RXF 393 it was 77%. Besides, the inhibition of growth at 10 µM is 38% in the assay with NCI-H322M; 50% in the assay with COLO 205; 38% in the assay on 786-0; 35% in the assay with SF-295; 26% with EKVX; 58% in the assay with DU-145. Moreover, the inhibition of growth at 10 µM in the assay with NCI-H522 is 39%; in the assay on HT-29 it was 59%; in the assay on SN12C it was 45%; with UO-31, 23%; in the assay with Hs-578T, 47%; in the assay with LOX IMVI, 73%. The inhibition of growth at 10 µM in the assay on SK-MEL-28 is 32%; with TK-10 it was below 10%.

Consider `CN(C)c1ccc(/C=N/Nc2nc(Nc3ccccc3)nc(Nc3ccc(S(N)(=O)=O)cc3)n2)cc1`, for which the inhibition of growth at 10 µM is 25% with Malme-3M; 16% in the assay on SNB-19; below 10% with SK-OV-3; 31% in the assay with OVCAR-8; 28% in the assay with IGROV-1; 35% in the assay on RXF 393. Also, the inhibition of growth at 10 µM with NCI-H322M is 15%; in the assay with COLO 205 it was below 10%; in the assay with 786-0, 31%; with SF-295 it was 53%; in the assay on EKVX it was below 10%; with DU-145, 26%. Further, the inhibition of growth at 10 µM in the assay with NCI-H522 amounted to 20%; in the assay with HT-29, 43%; in the assay with SN12C, 22%; with UO-31 it was 15%; in the assay with Hs-578T, 37%; in the assay on LOX IMVI, 31%. Moreover, the inhibition of growth at 10 µM in the assay with SK-MEL-28 was 10%; in the assay with TK-10 it was below 10%.

In the case of `NS(=O)(=O)c1ccc(Nc2nc(N/N=C/C=C/c3ccccc3)nc(Nc3ccccc3)n2)cc1`, the inhibition of growth at 10 µM with Malme-3M was 49%; with SNB-19, 51%; in the assay on SK-OV-3, 21%; in the assay on OVCAR-8, 50%; in the assay with IGROV-1, 63%; in the assay on RXF 393 it was 108%. Besides, the inhibition of growth at 10 µM in the assay on NCI-H322M came out at 43%; in the assay with COLO 205, 44%; with 786-0, 62%; in the assay with SF-295, 55%; in the assay on EKVX, 28%; in the assay with DU-145, 57%. The inhibition of growth at 10 µM in the assay on NCI-H522 worked out at 33%; in the assay with HT-29 it was 65%; in the assay on SN12C, 51%; in the assay on UO-31, 60%; in the assay with Hs-578T, 60%; in the assay with LOX IMVI, 72%. In addition, the figures for the inhibition of growth at 10 µM in the assay with SK-MEL-28 and in the assay on TK-10 were 39% and 13%, respectively.
